Laboratory results taken from patent publication US11857550B2, “Benzathine analogs” (University of Pittsburgh—Of the Commonwealth System of …, priority 2012, dated 2024).

Key:
[1] = tested on: C57BL6 mice; assay: Carrageenan induced paw edema; assay type: in vivo; conditions: 200 ug IP daily, 48 h
Method: FIGS. 16A-16C. BC-1215 reduces Carrageenan induced paw edema. FIGS. 16A-16C. C57BL6 mice were deeply anesthetized with ketamine (80-100 mg/kg i.p.) and xylazine (10 mg/kg i.p.). Mice were received a subplantar administration of 25 ul of saline or 25 ul of carrageenan (1% in saline), followed by an IP injection of […] of BC-1215 daily for two days. Mice were then euthanized; the thickness and volume of paw was measured (FIG. 16B-16C). (n=4 mice/group, *p<0.05 versus vehicle)
BC-1215 ameliorates Carrageenan induced paw edema. BC-1215 also was tested in a mouse paw edema model to confirm its anti-inflammatory activity. Mice received subplantar administration of 25 ul of saline or 25 ul of carrageenan (1% in saline) (Posadas et al., Br J Pharmacol, 2004. 142(2):p. 331-8), followed by an IP injection of 200 ug of BC-1215 daily. 48 h later, mice were euthanized; the thickness and volume of the paw was measured. […] Thus, the FBXO3 inhibitor BC-1215 suppresses inflammation in a nonpulmonary model of edema involving the extremities.

[2] = target: T1, COX-2 (Mus musculus, UniProt Q05769); assay: COX-2 activity in MLE cells; assay type: cell-based, murine; conditions: 10 ug/ml, 24 h; positive control DuP-697
T1 construct: MLE cells were treated with BC-1215 (10 ug/ml) for 24 h before assaying for COX-2 activity (Cayman); endogenous in cells; host or cells: MLE (murine lung epithelial) cells
T1 sequence (Q05769 18-604): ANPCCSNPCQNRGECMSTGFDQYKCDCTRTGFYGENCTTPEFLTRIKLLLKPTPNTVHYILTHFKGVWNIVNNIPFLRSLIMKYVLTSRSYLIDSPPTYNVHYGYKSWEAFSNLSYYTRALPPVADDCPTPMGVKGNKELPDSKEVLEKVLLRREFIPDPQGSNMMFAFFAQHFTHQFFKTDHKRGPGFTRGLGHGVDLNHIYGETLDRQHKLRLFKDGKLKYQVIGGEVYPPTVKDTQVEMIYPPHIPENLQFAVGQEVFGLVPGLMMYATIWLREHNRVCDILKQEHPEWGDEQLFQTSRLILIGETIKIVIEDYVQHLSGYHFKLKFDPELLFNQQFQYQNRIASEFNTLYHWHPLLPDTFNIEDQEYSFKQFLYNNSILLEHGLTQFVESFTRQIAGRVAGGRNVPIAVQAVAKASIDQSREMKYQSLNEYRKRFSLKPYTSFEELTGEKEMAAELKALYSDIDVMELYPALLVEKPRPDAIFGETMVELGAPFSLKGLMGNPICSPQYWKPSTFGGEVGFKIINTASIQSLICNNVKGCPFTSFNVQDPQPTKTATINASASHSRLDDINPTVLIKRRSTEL

[3] = tested on: C57BL6 mice; assay: Pseudomonas aeruginosa PA103 pneumonia model; assay type: in vivo; conditions: 100 ug IP, PA103 18 h
[4] = target: FBXO3 (Homo sapiens, UniProt Q9UK99); assay: In vitro ubiquitination assay, SCFFBXO3 complex with V5-FBXL2 substrate; assay type: biochemical; conditions: increased concentration of compound
Sequence of FBXO3 (Q9UK99 whole entry): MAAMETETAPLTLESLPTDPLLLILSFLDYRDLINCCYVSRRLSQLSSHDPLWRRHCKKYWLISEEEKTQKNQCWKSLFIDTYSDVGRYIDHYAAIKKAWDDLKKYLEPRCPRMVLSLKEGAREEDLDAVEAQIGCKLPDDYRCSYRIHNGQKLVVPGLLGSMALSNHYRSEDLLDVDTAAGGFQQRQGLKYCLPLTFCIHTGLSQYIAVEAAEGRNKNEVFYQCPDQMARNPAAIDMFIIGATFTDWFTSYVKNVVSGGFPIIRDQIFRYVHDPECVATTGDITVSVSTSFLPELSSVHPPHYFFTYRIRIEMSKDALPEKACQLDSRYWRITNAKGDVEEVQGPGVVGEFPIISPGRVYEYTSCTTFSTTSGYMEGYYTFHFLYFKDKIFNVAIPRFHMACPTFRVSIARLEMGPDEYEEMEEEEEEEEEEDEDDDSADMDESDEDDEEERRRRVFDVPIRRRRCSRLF
Sequence of FBXO3 (P63208 whole entry partner): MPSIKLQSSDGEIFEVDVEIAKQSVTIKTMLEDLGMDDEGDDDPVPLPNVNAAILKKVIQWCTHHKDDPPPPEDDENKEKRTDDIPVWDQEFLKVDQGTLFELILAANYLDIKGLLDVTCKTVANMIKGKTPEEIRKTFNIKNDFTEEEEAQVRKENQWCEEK
Sequence of FBXO3 (Q13616 whole entry partner): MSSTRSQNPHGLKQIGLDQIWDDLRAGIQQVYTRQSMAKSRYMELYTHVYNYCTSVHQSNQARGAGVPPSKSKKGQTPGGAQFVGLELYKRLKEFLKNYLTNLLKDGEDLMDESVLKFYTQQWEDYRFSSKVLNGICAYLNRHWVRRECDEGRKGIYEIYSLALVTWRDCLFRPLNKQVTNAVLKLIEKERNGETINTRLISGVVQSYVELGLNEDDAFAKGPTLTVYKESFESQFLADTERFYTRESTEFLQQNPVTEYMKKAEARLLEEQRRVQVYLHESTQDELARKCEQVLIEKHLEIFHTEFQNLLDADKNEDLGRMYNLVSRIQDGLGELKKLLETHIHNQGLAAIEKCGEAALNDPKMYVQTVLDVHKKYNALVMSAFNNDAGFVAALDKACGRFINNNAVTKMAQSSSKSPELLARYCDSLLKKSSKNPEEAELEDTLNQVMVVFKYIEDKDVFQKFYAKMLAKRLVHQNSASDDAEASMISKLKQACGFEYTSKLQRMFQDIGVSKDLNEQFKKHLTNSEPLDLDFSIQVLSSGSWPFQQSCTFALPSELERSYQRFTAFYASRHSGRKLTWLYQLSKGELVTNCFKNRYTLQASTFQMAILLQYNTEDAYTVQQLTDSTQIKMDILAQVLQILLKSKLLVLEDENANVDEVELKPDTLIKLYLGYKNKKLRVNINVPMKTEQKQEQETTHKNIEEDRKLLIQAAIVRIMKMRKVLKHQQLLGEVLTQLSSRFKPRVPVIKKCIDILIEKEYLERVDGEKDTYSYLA
Sequence of FBXO3 (P62877 whole entry partner): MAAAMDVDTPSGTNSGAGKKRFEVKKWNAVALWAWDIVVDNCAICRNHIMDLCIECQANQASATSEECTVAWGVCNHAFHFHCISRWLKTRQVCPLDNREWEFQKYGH
From the text: (§1) FIGS. 10A-10E. BC-1215 inhibits FBXO3 and decreases TRAF protein levels. FIG. 10A. […] FIG. 10B. In vitro ubiquitination assays. […] FIG. 10C. […] Cells were collected and assayed for immunoblotting. FIG. 10D. […] FIG. 10E.
(§2) BC-1215 inhibits FBXO3 and decreases TRAF protein levels. […] Cells were collected and assayed for protein immunoblotting.

[5] = tested on: MLE cells; assay: MLE cells protein immunoblotting; assay type: cell-based, murine; conditions: different concentrations, 16 h
From the text: as §1, §2

[6] = tested on: U937 monocyte; assay: U937 monocyte Trypan blue cell death (LD50); assay type: cell-based, human; conditions: U937 monocytes, 16 h
Method: FIGS. 20A-20J is a table depicting benzathine compounds, and assay results. PBMC cells (0.6 ml at 1.5*10^6/ml) were treated with 2 ug/ml LPS for 16 hrs along with each compound at different concentrations. IL1β and TNFα cytokine release were monitored by ELISA to calculate the IC50. U937 monocyte (0.6 ml at 1.5*10^6/ml) were treated with each compound at different concentrations for 16 h. Cells were then stained with Trypan blue to differentiate dead cells, and calculate the LD50. Therapeutic index (TI)=LD50/IC50. Compounds marked in red are high value targets (low IC50, high LD50) and require further testing in vivo.
Briefly, compounds were added to human PBMC cells at different concentrations that were exposed to […] and cytokine secretion was monitored by ELISA to determine the IC50. Compounds were also added to U937 monocytes at different concentrations, and cells were stained with trypan blue to determine the LD50. […] Several functional studies were undertaken to assess anti-inflammatory effects focusing on BC-1215.

[7] = tested on: C57BL6 mice; assay: TPA induced ear edema; assay type: in vivo; conditions: topical, 8, 40, 200 ug/ear, 18 h after TPA
Method: FIGS. 15A-15C. […] FIG. 15A-15C. C57BL6 mice were deeply anesthetized with ketamine (80-100 mg/kg i.p.) and xylazine (10 mg/kg i.p.). 20 μl of ethanol solution of BC-1215 was applied to ears at 8, 40, 200 ug/ear 30 min after TPA administration (2 μg/ear). Comparisons included equal volumes of ethanol (vehicle control). 18 h after TPA administration, mice were euthanized; the thickness of the ear was measured using a micrometer (FIG. 15B). Ear punch biopsies were also taken immediately, weighed and graphed (FIG. 15C).
FIGS. 23A-23D. […] Different dose of BC-1261 was applied to ears of mice at various doses 30 min after TPA administration (2 μg/ear). A. Gross comparisons were made with equal volumes of ethanol as a vehicle control (CON). 18 h after TPA administration, mice were euthanized and the thickness of the ear was measured using a micrometer (B). Autopsy sample were also taken to measure MPO activity (C) and calculate ear edema (D). The data represent n=6 mice/group, *P<0.05 versus TPA.
Topical application of BC-1215 as an anti-inflammatory agent was tested in a model of 12-O-tetradecanoylphorbol-13-acetate (TPA) induced ear edema (Bralley et. al., J Inflamm (LOnd), 2008. 5:p.1). Briefly, 20 μl of an ethanol solution of BC-1215 was applied to ears of mice at 8, 40, and 200 ug/ear for 30 min after TPA administration (2 μg/ear). Comparisons included equal volumes of ethanol (vehicle control). 18 h after TPA administration, mice were euthanized; the thickness of the ear was measured using a micrometer. Ear punch biopsies were also taken immediately, weighed, and graphed.

c1ccc(-c2ccc(CNCCNCc3ccc(-c4ccccn4)cc3)cc2)nc1 [BC-1215]
paw edema [1]: significantly reduced
paw thickness [1]: significantly reduced
COX-2 activity [2]: did not alter COX-2 activity
cell infiltrates [3]: decreased
lavage cell counts [3]: decreased
lavage pro-inflammatory cytokine levels [3]: significantly decreased
lavage protein concentration [3]: decreased
lung compliance [3]: increased compliance
lung elastance [3]: reduced elastance
lung resistance [3]: decreased lung resistance
FBXO3 catalyzed FBXL2 polyubiquitination [4]: able to inhibit FBXO3 catalyzed FBXL2 polyubiquitination
FBXL2 protein levels [5]: increased FBXL2 protein levels in a dose dependent manner
TRAF protein levels [5]: decreasing TRAF protein levels
LD50 [6]: low
ear edema [7]: significantly resolve edema
ear thickness [7]: significantly reduced
ear weight (punch biopsies) [7]: significantly reduced
